Measurements published in patent US20240190857A1, “METHODS FOR MANUFACTURE OF SMALL MOLECULE ACTIVATORS OF TIE-2” (EyePoint Pharmaceuticals, Inc., priority 2020, published 2024).
Values after ≈ are worked out from the molar mass of the structure shown. Like-named read-outs stand apart in the source and are kept apart here.

Test: Solubility of compounds in various solvents
Assay type: physicochemical
Conditions: for solubility: organic solvent or mixture, read-out: Observation: solubility / saturation concentration (S.C.)

For `COC(=O)N[C@@H](Cc1ccccc1)C(=O)N[C@@H](Cc1ccc(NS(=O)(=O)[O-])cc1)c1csc(-c2cccs2)n1.[Na+]` [Compound 1, sodium (4-((S)-2-((S)-2-((methoxycarbonyl)amino)-3-phenylpropanamido)-2-(2-(thiophen-2-yl)thiazol-4-yl)ethyl)phenyl)sulfamate], which solubility (17 °C, Acetone, 17-22° C.) is on record?
Its solubility is < 60 mg/mL.

And the solubility (17 °C, Acetone:H2O (80:20), 17-22° C.)?
Its solubility is ≥ 53 mg/mL.

And the solubility (17 °C, DMSO, 17-22° C.)?
The solubility was ≥ 106 mg/mL.

What about the solubility (17 °C, MeOH, 17-22° C.) of the same compound?
The solubility was ~30 mg/mL.

And the solubility (17 °C, THF, 17-22° C.)?
Its solubility is < 40 mg/mL.

For `COC(=O)N[C@@H](Cc1ccccc1)C(=O)N[C@@H](Cc1ccc([N+](=O)[O-])cc1)c1csc(-c2cccs2)n1` [Compound F-3, methyl ((S)-1-(((S)-2-(4-nitrophenyl)-1-(2-(thiophen-2-yl)thiazol-4-yl)ethyl)amino)-1-oxo-3-phenylpropan-2-yl)carbamate], which solubility (17 °C, DMF, 17-22° C.) is on record?
The solubility was ≥ 100 mg/mL.

What about the solubility (17 °C, THF, 17-22° C.) of the same compound?
The solubility was ~5 mg/mL (≈ 9.32 mM).

What about the solubility (17 °C, Toluene, 17-22° C.) of the same compound?
Its solubility is < 5 mg/mL.

What about the solubility (50 °C, THF, 50-55° C.) of the same compound?
Its solubility is ~100 mg/mL (≈ 186 mM).

What about the solubility (60 °C, 2-MeTHF, 60-65° C.) of the same compound?
Its solubility is ~15 mg/mL (≈ 28 mM).

Which “Observation: solubility / saturation concentration (S.C.)” value (MeOH, 17-22° C.) does the source give for `CN(C)C.COC(=O)N[C@@H](Cc1ccccc1)C(=O)N[C@@H](Cc1ccc(NS(=O)(=O)O)cc1)c1csc(-c2cccs2)n1` [Compound F-5, trimethylammonium (4-((S)-2-((S)-2-((methoxycarbonyl)amino)-3-phenylpropanamido)-2-(2-(thiophen-2-yl)thiazol-4-yl)ethyl)phenyl)sulfamate] here?
The value was “Soluble at 93 mg/mL”.
